The results in this text go back to US6897319B2, “Useful aroyl pyrrole heteroaryl methanones and methanols” (Ortho-McNeil Pharmaceutical, Inc., priority 2001, dated 2005).

The test system of assay [1] is maximal electroshock extensor seizure. Briefly: Mouse maximal electroshock test (MES) anticonvulsant model. The format is in vivo. As to conditions: oral, @ 300 mpk. The protocol: Procedure for Testing in Mouse Anticonvulsant Model
The activity of the present compounds as anticonvulsant agents was determined using a standard mouse “maximal electroshock test” (MES). In this test, activity was indicated by a block of the […] extensor seizure, as described by Swinyard, et al. (J. Pharmacol. Exptl. Therap., 1952, 106, 319). A more recent description of current anticonvulsant drug screening is given in Swinyard, et al., in Epilepsia, 1978, 19, 409.
The anticonvulsant activity of the instant compounds is shown in Table 5 and was evaluated according to the Swinyard (1952) method. The abbreviations used in the table have the following meanings: mpk refers to the dose orally administered in “mg per Kg;” and, ED50 refers to the “50% Effective Dose” orally administered in mpk. The values marked by an * represent the number of mice protected/number of mice tested; therefore, a value of 3/3 represents that the number of mice protected matched the number of mice tested at the indicated dose.
(In general: In the maximal electroshock model the usual endpoint is tonic extension of the hind limbs.)

Assay [2] has as its system voltage-gated sodium channels. Briefly: Fluorometric membrane potential assay in SK-N-SH cells (veratridine stimulus, FLIPR). The format is cell-based. To be noted: 10 μM compound, 5 μM veratridine. The protocol: Screening Assay for Voltage-Gated Sodium Channel Antagonists Fluorometric Membrane Potential Assay
SK-N-SH neuroblastoma cells were maintained in a propagation medium containing modified Eagle's medium and 10% (v/v) fetal bovine serum and were incubated at 37° C. in a 5% CO2 atmosphere. Only cells with fewer than 20 passages were used in each assay. All drugs were prepared in DMSO, and the final concentration of solvent was less than 0.1% (v/v). Veratridine, a toxin that selectively promotes persistent activation of voltage-gated sodium channels, served as the stimulus. 24 hr prior to testing, 1×10^5 cells/well were plated into 96-well plates specifically designed for use in a fluorescent imaging plate reader (FLIPR) (Molecular Devices, Sunnyvale, Calif.)
Prior to screening, monolayers of cells were loaded with 100 μL/well of a proprietary voltage-sensitive dye (Molecular Devices, Sunnyvale, Calif.) for 30 min at 37° C. After this incubation period, the cells were stimulated with 5 μM veratridine in the presence or absence of investigational compounds (prepared at a final concentration of 10 μM in DMSO). A sample containing 5 μM veratridine and 10 μM tetrodotoxin accounted for nonspecific activity. The fluorescence was monitored by the FLIPR (Molecular Devices) from 10 sec prior to drug addition (50 μL) to 170 sec after drug addition at 25° C. During sodium channel activation, the cells depolarize and the dye associates with cell membranes, resulting in increased fluorescence.

Assay [3] has as its system voltage-gated sodium channels. Briefly: [14C]guanidinium flux assay in SK-N-SH cells (veratridine stimulus). To be noted: 10 μM compound, 100 μM veratridine. The assay is classed as cell-based. The protocol: Screening Assay for Voltage-Gated Sodium Channel Antagonists [^14C] Guanidinium Flux Assay
SK-N-SH neuroblastoma cells were maintained in a propagation medium containing modified Eagle's medium and 10% (v/v) fetal bovine serum and were incubated at 37° C. in a 5% CO2 atmosphere. Only cells with fewer than 20 passages were used in each assay. All drugs were prepared in DMSO, and the final concentration of solvent was less than 0.1% (v/v). Veratridine, a toxin that selectively promotes persistent activation of voltage-gated sodium channels, served as the stimulus.
SK-N-SH cells were plated at 1×10^5 cells/well in 96-well Cytostar-T microscintillating plates in propagation medium and experiments were performed 6-7 days after plating. Prior to assay, the SK-N-SH cells were washed twice with assay buffer containing 50 mM HEPES (pH 7.45), 5.4 mM potassium chloride, 0.8 mM magnesium chloride, 130 mM choline chloride, 5.5 mM glucose and 0.1 mg/mL bovine serum albumin. Next, the plates were allowed to equilibrate for 10 min at 37° C. in assay buffer. After this incubation period, the cells were stimulated with 100 μM veratridine in the presence or absence of investigational compounds prepared in a 96-well plate (prepared at a final concentration of 10 μM in DMSO). The 96-well dosing plate was prepared by mixing 25 μL of a drug/assay buffer solution per well with 25 μL of 0.7 μCi/mL [^14C]guanidine hydrochloride in assay buffer. 50 μL aliquots from the dosing plate were then added to the cells. One sample containing 100 μM veratridine and 10 μM tetrodotoxin accounted for nonspecific activity. The plates were incubated for 1 hr at room temperature and the radioactivity was counted in a 1450 Microbeta scintillation counter.

Assay [4] deals with mechanical allodynia after L5 spinal nerve ligation. Briefly: Chung Model (spinal nerve ligation) antiallodynic effect. The format is in vivo. To be noted: rat, oral, screening dose (not given). The source says:
Procedure for Testing Antiallodynic Effect
The procedure used to detect the antiallodynic effect of a compound of the present invention for which there is a good correlation with human efficacy for the treatment of pain is the procedure for the measurement of allodynia found in the Chung Model (Kim S. H. and Chung J. M., An Experimental Model for Peripheral Neuropathy Produced by Segmental Spinal Nerve Ligation in the Rat, Pain, 1992, 50, 355-363). The antiallodynic effect of the composition of the present invention in the Chung Model is expressed in % MPE (Maximum Possible Effect).
Male Sprague-Dawley rats, weighing approximately 200 g each were anesthetized with isoflurane. The spinal nerve at the level of L5 was exposed through an incision just left of the dorsal midline and tightly ligated with 6-0 silk. At various times after surgery, animals were tested for mechanical allodynia with von Frey hairs (monofilaments which are calibrated to bend under a certain amount of pressure, ranging from 0.41 to 15.1 g). In order to calculate a paw withdrawal threshold (PWT), tactile allodynia was measured by recording the pressure at which the affected paw was withdrawn from graded stimuli according to the procedure of S. R. Chaplan, J. W. Pogrel, T. L. Yaksh, Role of Voltage-Dependent Calcium Channel Subtypes in Experimental Tactile Allodynia, J. Pharmacol. Exp. Ther., 1994, 269, 1117-1123. Normal rats can withstand at least 15 g of pressure without responding. Operated rats, however, can respond to as little as 0.25 g of pressure. The surgery was deemed successful if the animal responded with a PWT of less than 4 g of pressure applied to the affected paw. […] The PWT was used to calculate the % maximal possible effect (% MPE) according to the formula: %MPE=100×[(PWT−CT)/(CO−CT)]; wherein PWT is defined as Paw Withdrawal Threshold, CT is Control Threshold, and CO is Cut Off (defined as 15 g).
The sham operation consisted of a similar surgery; the spinal nerve was visualized without being ligated.
Compounds selected from Formula (I) and Formula (II) were tested for activity in treating or modulating neuropathic pain by being dissolved or suspended in either water or hydroxypropyl methylcellulose, respectively. Postoperative animals between 14 to 42 days were fasted overnight prior to dosing. Animals were orally dosed and dosage volumes were calculated on a 4 mL/kg basis.

The structures appear in SMILES notation. Marks after values point to notes of the source that are not given here.

For the compound `Cn1cc(C(=O)c2ccc(F)cc2)cc1C(=O)c1ccccn1` [Cpd 10, (4-Fluorophenyl)-[1-methyl-5-(pyridine-2-carbonyl)-1H-pyrrol-3-yl]methanone], the “MES Response, number of mice protected/number of mice tested” value in assay [1] is listed as 0/1* @ 300 mpk. Also, the “% FI at 10 μM (% fluorescence inhibition)” value in assay [2] was found to be 60%. The “% GFI at 10 μM (% guanidinium flux inhibition)” value in assay [3] is listed as 46%. For the same compound, the “% MPE in the Chung Model” value in assay [4] is 11%.
